Here are results for 20 molecules from patent publication US8697690B2, “Isoindolone M1 receptor positive allosteric modulators” (Merck Sharp & Dohme Corp., priority 2010, dated 2014).

The structures appear in SMILES notation.

This test addresses T1, acetylcholine muscarinic M1 receptor (Homo sapiens, UniProt P11229).
T1 construct: expressed in transfected cells; host or cells: CHOnfat cells (CHO with NFAT reporter background), Geneticin-selected
T1 sequence (P11229 1-460): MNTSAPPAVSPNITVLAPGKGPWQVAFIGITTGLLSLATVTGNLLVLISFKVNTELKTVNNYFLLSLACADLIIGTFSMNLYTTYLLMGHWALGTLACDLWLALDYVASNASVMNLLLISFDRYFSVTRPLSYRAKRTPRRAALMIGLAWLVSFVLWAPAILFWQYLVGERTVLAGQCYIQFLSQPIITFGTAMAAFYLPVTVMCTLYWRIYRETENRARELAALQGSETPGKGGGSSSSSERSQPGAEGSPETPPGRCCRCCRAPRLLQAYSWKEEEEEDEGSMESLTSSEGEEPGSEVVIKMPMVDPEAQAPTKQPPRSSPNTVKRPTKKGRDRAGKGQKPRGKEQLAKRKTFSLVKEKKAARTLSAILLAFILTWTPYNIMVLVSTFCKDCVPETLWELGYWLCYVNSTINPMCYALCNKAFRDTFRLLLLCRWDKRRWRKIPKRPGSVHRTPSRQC
As to the kind of experiment: muscarinic FLIPR assay: intracellular calcium in CHOnfat/hM1 cells, potentiation of EC20 acetylcholine. The conditions noted are these: IP = inflection point calculated from FLIPR values, 4 min preincubation, then EC20 acetylcholine (3 nM final). It is filed as cell-based. On the procedure: The assay studies the effect of one or several concentrations of test compounds on basal or acetylcholine-stimulated Ca^2+ levels using FLIPR.
Compounds are prepared and subjected to a preincubation period of 4 min. Thereafter, a single EC20 concentration of acetylcholine is added to each well (3 nM final). The intracellular Ca^2+ level of each sample is measured and compared to an acetylcholine control to determine any modulatory activity.
Cells: CHOnfat/hM1, hM2, hM3 or hM4 cells are plated 24 hr before the assay at a density of 18,000 cells/well (100 μL) in a 384 well plate. CHOnfat/hM1 and CHOnfat/hM3 Growth Medium: 90% DMEM (Hi Glucose); 10% HI FBS; 2 mM L-glutamine; 0.1 mM NEAA; Pen-Strep; and 1 mg/ml Geneticin, are added. For M2Gqi5CHOnfat and M4Gqi5CHOnfat cells, an additional 600 ug/ml hygromycin is added.
Equipment: 384 well plate, 120 μL addition plate; 96-well Whatman 2 ml Uniplate Incubator, 37° C., 5% CO2; Skatron EMBLA-384 Plate Washer; Multimek Pipetting System; Genesis Freedom 200 System; Mosquito System; Temo Nanoliter Pipetting System; and FLIPR^384 Fluorometric Imaging Plate Reader System are used.
Buffers. Assay Buffer: Hanks Balanced Salt Solution, with 20 mM Hepes, 2.5 mM Probenecid (Sigma P-8761) first dissolved in 1 N NaOH, 1% Bovine Serum Albumin (Sigma A-9647). Dye Loading Buffer: Assay Buffer plus 1% Fetal Bovine Serum and Fluo-4AM/Pluronic Acid Mixture. 2 mM Fluo-4AM ester stock in DMSO (Molecular Probes F-14202) Concentration of 2 μM in buffer for a final concentration of 1 μM in Assay. 20% Pluronic Acid Solution stock, with concentration of 0.04% in Buffer, 0.02% in Assay.
65 μL of 2 mM Fluo-4AM are mixed with 130 μL of 20% Pluronic Acid. The resulting solution and 650 μL FBS is added to the assay buffer for a total volume of 65 mL. Positive Controls: 4-Br-A23187: 10 mM in DMSO; final concentration […]. Acetylcholine: 10 mM in water, working stock at both 20 μM and 30 μM in assay buffer, final concentration of 10 μM. This is used to check the maximum stimulation of the CHOK1/hM1 cells. 20 μM (2×) acetylcholine is added in the preincubation part of the assay, and the 30 μM (3×) stock is added in the second part. (EC20)Acetylcholine: 10 mM in water, working stock of 9 nM (3×), and final concentration in assay is 3 nM. This is used after the preincubation with test compounds. Addition of the EC20 Acetylcholine to each well with a test compound will ascertain any modulator activity. 24 wells contain 3 nM Acetylcholine alone as a control.
Determining Activity of Putative Compounds:
Screening Plate Compounds are titrated in 96-well plates (columns 2-11), 100% DMSO, started at a concentration of 15 mM (150× stock concentration), and 3-fold serial dilutions using Genesis Freedom200 System. Four 96-well plates are combined into a 384-well plate using Mosquito Nanoliter Pipetting System by transferring 1 μl of serial diluted compounds to each well, and 1 mM acetylcholine (100× stock concentration) were added as a control. Using Temo, 49 μl assay buffer is added to each well of the 384-well plate right before assay.
In a 96-well Whatman 2 ml Uniplate, 9 nM Acetylcholine (3×) is pipetted into wells corresponding to the screening compounds, and into control wells. The 30 μM acetylcholine control (3×) is added into control wells, and the 3× agonist plate is transferred into a 384 well plate.
Cells are washed three times with 100 μL of buffer, leaving 30 μL of buffer in each well. Using Multimek, 30 μL of Dye Loading Buffer is added into each well and incubated at 37° C., 5% CO2 for up to one hr.
After 60 min, the cells are washed three times with 100 μL of buffer, leaving 30 μL of buffer in each well. The cell plate, screening plate, and agonist addition plates are placed on the platform in the FLIPR and the door closed. A signal test to check background fluorescence and basal fluorescence signal is performed. Laser intensity is adjusted if necessary. […]
As to `O=C1CCC(Cc2cc3c(c4ncccc24)CN([C@H]2CCCC[C@@H]2O)C3=O)CN1` (stereo partly drawn) [Example 20, 8-[(1S,2S)-2-Hydroxycyclohexyl]-5-[(6-oxopiperidin-3-yl)methyl]-3,9-dihydro-7H-pyrrolo[3,4-h]quinolin-7-one], the EC50 was 200 nM.
In the case of `COc1ccc(Cc2cc3c(c4ccccc24)CN([C@H]2CCCC[C@@H]2O)C3=O)cc1` [Example 1, 2-[(1S,2S)-2-Hydroxycyclohexyl]-5-(4-methoxybenzyl)-1,2-dihydro-3H-benzo[e]isoindol-3-one] it was 53 nM; in that of `O=C1c2cc(Cc3ccc(Cl)nc3)c3ccccc3c2CN1C1C=CCCC1` (centres unmarked) [Example 5, 5-[(6-Chloropyridin-3-yl)methyl]-2-cyclohex-2-en-1-yl-1,2-dihydro-3H-benzo[e]isoindol-3-one], 2470 nM.
Under `CC1c2c(cc(Cc3ccc(Cl)nc3)c3ccccc23)C(=O)N1c1ccccc1F` (racemic) [Example 15, (±)-5-[(6-Chloropyridin-3-yl)methyl]-2-(2-fluorophenyl)-1-methyl-1,2-dihydro-3H-benzo[e]isoinol-3-one] stands 665 nM; under `O=C1c2cc(Cc3ccc(Cl)nc3)c3ccccc3c2CN1[C@H]1CCCC[C@@H]1F` [Example 4, 5-[(6-Chloropyridin-3-yl)methyl]-2-[(2S)-2-fluorocyclohexyl]-1,2-dihydro-3H-benzo[e]isoindol-3-one], 310 nM.
In the case of `CN(C)CCC1c2c(cc(Cc3ccc(Cl)nc3)c3cccnc23)C(=O)N1[C@H]1CCCC[C@@H]1O` (stereo partly drawn) [Example 23, 5-[(6-Chloropyridin-3-yl)methyl]-9-[2-(dimethylamino)ethyl]-8-[(1S,2S)-2-hydroxycyclohexyl]-8,9-dihydro-7H-pyrrolo[3,4-h]quinolin-7-one] it was 99 nM; in that of `C=Cc1ccc(Cc2cc3c(c4ccccc24)CN([C@H]2CCCC[C@@H]2O)C3=O)cn1` [Example 3, 2-[(1S,2S)-2-Hydroxycyclohexyl]-5-[(6-vinylpyridin-3-yl)methyl]-1,2-dihydro-3H-benzo[e]isoindol-3-one], 11 nM.
As for `O=C1c2cc(Cc3cccnc3)c3ccccc3c2CN1[C@H]1CCCC[C@@H]1O` [Example 6, 2-[(1S,2S)-2-Hydroxycyclohexyl]-5-(pyridin-3-ylmethyl)-1,2-dihydro-3H-benzo[e]isoindol-3-one], the concentration giving a half-maximal response (EC50) was 11 nM.
Under `O=C1c2nc(Cc3ccc(Cl)nc3)c3ccccc3c2CN1[C@H]1CCCC[C@@H]1O` (racemic) [Example 16, (±)-5-[(6-Chloropyridin-3-yl)methyl]-2-[trans-2-hydroxycyclohexyl]-1,2-dihydro-3H-pyrrolo[3,4-c]isoquinoline-3-one] stands 49 nM; under `O=C1c2cc(Cc3ccc(Cl)nc3)c3cccnc3c2C(CC(O)CO)N1[C@H]1CCCC[C@@H]1O` (stereo partly drawn) [Example 21, 5-[(6-Chloropyridin-3-yl)methyl]-9-(2,3-dihydroxypropyl)-8-[(1S,2S)-2-hydroxycyclohexyl]-8,9-dihydro-7H-pyrrolo[3,4-h]quinolin-7-one], 19 nM.
Turning to `O=C1c2cc(Cc3ccc(O)nc3)c3ccccc3c2CN1[C@H]1CCOC[C@@H]1O` [Example 13, 1,5-Anhydro-2,3-dideoxy-3-{3-oxo-5-[(6-oxo-1,6-dihydropyridin-3-yl)methyl]-1,3-dihydro-2H-benzo[e]isoindol-2-yl}-L-threo-pentitol], the EC50 is 20 nM.
Under `COc1ccc(Cc2cc3c(c4ncccc24)C(C)(C)N([C@H]2CCCC[C@@H]2O)C3=O)cn1` [Example 18, 8-[(1S,2S)-2-Hydroxycyclohexyl]-5-[(6-methoxypyridin-3-yl)methyl]-9,9-dimethyl-8,9-dihydro-7H-pyrrolo[3,4-h]quinolin-7-one] stands 310 nM.
Under `COc1ccc(Cc2cc3c(c4ccccc24)CN(c2ncccc2C(F)(F)F)C3=O)cn1` [Example 14, 5-[(6-Methoxypyridin-3-yl)methyl]-2-[3-(trifluoromethyl)pyridin-2-yl]-1,2-dihydro-3H-benzo[e]isoindol-3-one] stands 144 nM; under `Cc1ccc(Cc2cc3c(c4ccccc24)CN([C@H]2CCCC[C@@H]2O)C3=O)cn1` [Example 2, 2-[(1S,2S)-2-Hydroxycyclohexyl]-5-[(6-methylpyridin-3-yl)methyl]-1,2-dihydro-3H-benzo[e]isoindol-3-one], 18 nM; under `CC(=O)O[C@H]1COCC[C@@H]1N1Cc2c(cc(Cc3ccc(O)nc3)c3ccccc23)C1=O` [Example 12, 2-O-Acetyl-1,5-anhydro-3,4-dideoxy-3-{3-oxo-5-[(6-oxo-1,6-dihydroyridin-3-yl)methyl]-1,3-dihydro-2H-benzo[e]isoindol-2-yl)-L-threo-pentitol], 5200 nM.
In the case of `O=C1c2nc(Cc3ccc(-n4cccn4)nc3)c3ccccc3c2CN1[C@H]1CCCC[C@@H]1O` (racemic) [Example 17, (±)-2-[trans-2-Hydroxycyclohexyl]-5-{[6-(1H-pyrazol-1-yl)pyridine-3-yl]methyl}-1,2-dihydro-3H-pyrrolo[3,4-c]isoquinoline-3-one] it was 29 nM; in that of `O=C1c2cc(Cc3ccc(Cl)nc3)c3ccccc3c2CN1[C@H]1CCOC[C@@H]1O` [Example 8, 5-[(6-Chloropyridin-3-yl)methyl]-2-[(3R,4S)-3-hydroxytetrahydro-2H-pyran-4-yl]-1,2-dihydro-3H-benzo[e]isoindol-3-one], 12 nM; in that of `CSc1ccc(Cc2cc3c(c4ccccc24)CN([C@H]2CCCC[C@@H]2O)C3=O)cn1` [Example 10, 2-[(1S,2S)-2-Hydroxycyclohexyl]-5-{[6-(methylthio)pyridine-3-yl]methyl}-1,2-dihydro-3H-benzo[e]isoindol-3-one], 29 nM.
Take `COc1ccc(Cc2cc3c(c4ccccc24)CN([C@H]2COCC[C@@H]2O)C3=O)cn1` [Example 11, 2-[(3S,4S)-4-Hydroxytetrahydro-2H-pyran-3-yl]-5-[(6-methoxypyridin-3-yl)methyl]-1,2-dihydro-3H-benzo[e]isoindol-3-one]: the EC50 is 52 nM.
As to `O=C1c2cc(Cc3ccc(N4CCOCC4)nc3)c3ccccc3c2CN1[C@H]1CCCC[C@@H]1O` [Example 7, 2-[(1S,2S)-2-Hydroxycyclohexyl]-5-[(6-morpholin-4-ylpyridin-3-yl)methyl]-1,2-dihydro-3H-benzo[e]isoindol-3-one], the EC50 is 14 nM.

A word on the EC50: it is the concentration needed to bring the measured effect to its halfway point.
